The results in this text go back to ChEMBL document CHEMBL1147744, “Discovery of two novel, small-molecule inhibitors of DNA methylation” (J Med Chem, 2006).

Assay [1] concerns the target DNA (cytosine-5)-methyltransferase 1 (Homo sapiens, UniProt P26358). The experiment in a line: Inhibitory activity against DNA methyl transferase in leukemic NALM6 cells. The class given is cell-based, NALM-6.
The target of assay [2] is Orphan methyltransferase M.SssI (Spiroplasma monobiae, UniProt P15840). The experiment in a line: Inhibition of recombinant CpG methylase M.SssI.
Chain of Orphan methyltransferase M.SssI (P15840 whole entry): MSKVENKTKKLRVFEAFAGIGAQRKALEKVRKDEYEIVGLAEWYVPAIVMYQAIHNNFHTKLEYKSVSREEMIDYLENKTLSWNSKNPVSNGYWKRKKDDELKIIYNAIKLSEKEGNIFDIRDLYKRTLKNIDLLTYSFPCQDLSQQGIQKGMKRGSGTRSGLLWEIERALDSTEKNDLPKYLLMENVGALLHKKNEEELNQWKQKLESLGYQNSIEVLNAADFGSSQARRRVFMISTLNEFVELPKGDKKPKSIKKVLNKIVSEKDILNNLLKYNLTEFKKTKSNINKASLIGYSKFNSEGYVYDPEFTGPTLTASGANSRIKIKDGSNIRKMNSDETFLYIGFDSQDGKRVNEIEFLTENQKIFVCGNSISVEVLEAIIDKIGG

Chain of DNA (cytosine-5)-methyltransferase 1 (P26358 whole entry): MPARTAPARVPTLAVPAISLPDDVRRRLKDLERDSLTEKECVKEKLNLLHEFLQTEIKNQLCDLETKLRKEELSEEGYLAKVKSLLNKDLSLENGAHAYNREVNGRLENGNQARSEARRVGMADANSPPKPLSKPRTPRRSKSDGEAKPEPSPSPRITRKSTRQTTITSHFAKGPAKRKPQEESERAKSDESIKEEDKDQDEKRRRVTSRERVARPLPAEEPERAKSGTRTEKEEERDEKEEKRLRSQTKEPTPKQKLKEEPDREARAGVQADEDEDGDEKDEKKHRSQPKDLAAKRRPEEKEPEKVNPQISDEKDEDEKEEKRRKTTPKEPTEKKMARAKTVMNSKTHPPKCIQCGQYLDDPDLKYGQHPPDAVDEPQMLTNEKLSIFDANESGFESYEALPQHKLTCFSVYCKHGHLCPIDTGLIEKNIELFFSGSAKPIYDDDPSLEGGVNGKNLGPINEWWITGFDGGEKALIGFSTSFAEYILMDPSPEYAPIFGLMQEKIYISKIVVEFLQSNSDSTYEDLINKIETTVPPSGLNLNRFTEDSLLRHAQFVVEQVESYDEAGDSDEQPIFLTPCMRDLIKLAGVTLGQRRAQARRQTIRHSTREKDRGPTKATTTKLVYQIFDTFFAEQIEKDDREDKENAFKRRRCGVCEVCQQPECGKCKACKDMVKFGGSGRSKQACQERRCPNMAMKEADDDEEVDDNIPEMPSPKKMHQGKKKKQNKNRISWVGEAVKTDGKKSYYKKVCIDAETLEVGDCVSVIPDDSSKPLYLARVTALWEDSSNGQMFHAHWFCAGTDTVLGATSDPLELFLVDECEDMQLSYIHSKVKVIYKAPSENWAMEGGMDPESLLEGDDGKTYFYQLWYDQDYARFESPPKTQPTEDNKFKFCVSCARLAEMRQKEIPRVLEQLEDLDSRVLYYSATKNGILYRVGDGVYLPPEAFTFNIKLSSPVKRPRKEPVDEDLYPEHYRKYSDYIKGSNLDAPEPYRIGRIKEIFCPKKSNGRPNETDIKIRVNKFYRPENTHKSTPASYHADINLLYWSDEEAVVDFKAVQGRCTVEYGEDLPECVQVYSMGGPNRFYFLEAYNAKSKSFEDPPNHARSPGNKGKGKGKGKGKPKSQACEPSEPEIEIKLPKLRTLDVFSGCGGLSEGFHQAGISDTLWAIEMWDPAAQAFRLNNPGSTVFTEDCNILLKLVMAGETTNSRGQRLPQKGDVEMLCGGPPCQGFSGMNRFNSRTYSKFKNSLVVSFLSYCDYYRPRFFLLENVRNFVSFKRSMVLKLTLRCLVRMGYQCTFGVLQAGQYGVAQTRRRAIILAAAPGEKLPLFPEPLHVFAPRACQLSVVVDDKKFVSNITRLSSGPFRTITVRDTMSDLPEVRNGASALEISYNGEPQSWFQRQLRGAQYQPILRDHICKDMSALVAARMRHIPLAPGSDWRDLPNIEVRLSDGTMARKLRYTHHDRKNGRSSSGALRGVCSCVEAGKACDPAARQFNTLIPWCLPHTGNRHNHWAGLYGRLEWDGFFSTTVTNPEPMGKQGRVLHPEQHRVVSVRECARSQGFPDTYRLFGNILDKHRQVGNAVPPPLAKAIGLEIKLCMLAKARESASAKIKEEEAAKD

By IC50 is commonly meant the point on the concentration scale where inhibition reaches its midpoint. In the case of `Cc1ccn2c(CCc3nnc4cc(C)ccn34)nnc2c1`, the figures for the IC50 in assay [1] and in assay [2] were 100 µM and 0.4 µM, respectively.
The like results for `O=C(O)C(Cc1c[nH]c2ccccc12)N1C(=O)c2ccccc2C1=O` (centres undefined) were, in that order, 50 µM and 0.6 µM.
